# Where a name gives a salt, the structure may show the parent alone.
# Target: recombinant sEH (soluble epoxide hydrolase, EPHX2) (Homo sapiens (Human), UniProt P34913)
# Experiment: biochemical fluorometric sEH inhibition assay with Phome substrate
# Conditions: recombinant sEH purified from Sf9 insect cells, 2 nM sEH, 5 μM Phome, 60 minutes at 30° C.
# Protocol: Compounds were tested in a biochemical screening assay using recombinant sEH purified from Sf9 insect cells and an artificial substrate, (3-phenyl-oxiranyl)-acetic acid cyano-(6-methoxy-naphtalen-2-yl)-methyl ester, Phome. The biochemical assay was performed in analogy to a fluorometric described in the literature (P. D. Jones et al., Anal. Biochem. 2005, 343, 66-75). The assay principle bases on the sEH-catalyzed hydrolysis of an artificial α-cyano-ester substrate. O-deacetylation liberates a cyanohydrin intermediate that rapidly decomposes to the highly fluorescent 6-methoxy-2-naphtaldehyde. To discriminate sample autofluorescence, the assay was carried out as a kinetic measurement with two time points. The first measurement is performed immediately before addition of the substrate and the […] measurement is done after completion of the assay. The assay format is either in 96- or in 384-well format.
# Details of the assay using a 96-well plate format are described below. 40 μl recombinant sEH enzyme and 5 μl test compound are pre-incubated for 15 minutes at 30° C. Following pre-incubation, the reaction is started by addition of 5 μl Phome. The assay mixture containing 2 nM final sEH concentration, test compound ranging in a concentration from 0.0001-10 μM and 5 μM Phome is incubated for 60 minutes at 30° C.
# Fluorescence is measured with any suitable detector for instance a TECAN Safire or Tecan Ultra at […]. % inhibition of recombinant sEH activity is used for calculation of corresponding IC50 values as illustrated and described in the examples.
# The NCBI gene bank reference sequence with the accession number NM_001979 for EPHX2/sEH was applied for recombinant protein production:
# The following commercially available materials have been used: • Incubation reagent: 25 mM Hepes (Sigma-Aldrich, Cat. No H-3375), 0.01% bovine albumin (Sigma-Aldrich Cat. No PA9205) • Substrate: 3-Phenyl-oxiranyl)-acetic acid cyano-(6-methoxy-naphtalen-2-yl)-methyl ester, Phome (Biozol Cat. No 10003134) • Microtiter plates: 96-well plates (Greiner Cat. No 655180; Costar Cat. No 3915)
# recombinant sEH (soluble epoxide hydrolase, EPHX2), sequence (P34913 whole entry): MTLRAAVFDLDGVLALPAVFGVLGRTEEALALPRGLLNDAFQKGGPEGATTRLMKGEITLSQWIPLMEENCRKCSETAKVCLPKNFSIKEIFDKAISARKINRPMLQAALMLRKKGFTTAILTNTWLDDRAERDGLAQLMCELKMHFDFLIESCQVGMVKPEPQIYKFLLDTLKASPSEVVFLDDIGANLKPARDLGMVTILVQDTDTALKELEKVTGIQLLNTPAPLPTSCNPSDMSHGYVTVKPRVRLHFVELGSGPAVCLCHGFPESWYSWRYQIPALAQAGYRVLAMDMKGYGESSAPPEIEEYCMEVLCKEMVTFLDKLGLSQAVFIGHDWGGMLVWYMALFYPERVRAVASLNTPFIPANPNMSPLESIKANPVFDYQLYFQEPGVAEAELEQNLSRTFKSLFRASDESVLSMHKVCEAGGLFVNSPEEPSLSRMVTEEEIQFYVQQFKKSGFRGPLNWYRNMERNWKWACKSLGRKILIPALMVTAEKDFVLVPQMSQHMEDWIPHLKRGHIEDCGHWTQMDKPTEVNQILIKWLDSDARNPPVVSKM
row,IC50,Compound
1,1.25 nM,O=C(NCc1ccccc1C(F)(F)F)c1ccc(CN2CCN(C(=O)c3ccc(F)cc3Cl)CC2)s1 [Example 64]
2,1.19 nM,O=C(NCc1ccc(Cl)cc1Cl)c1ccc(CN2CCN(C(=O)c3nccc4ccccc34)CC2)s1 [Example 65]
3,1.25 nM,O=C(NCc1ccccc1OC(F)(F)F)c1ccc(CN2CCN(C(=O)c3ccc[nH]c3=O)CC2)s1 [Example 66]
4,1.21 nM,COc1ccc(OC)c(C(=O)N2CCN(Cc3ccc(C(=O)NCc4ccccc4OC(F)(F)F)s3)CC2)n1 [Example 67]
5,1.19 nM,COCC1(C(=O)N2CCN(Cc3ccc(C(=O)NCc4ccccc4OC(F)(F)F)s3)CC2)CC1 [Example 68]
6,2.62 nM,O=C(NCc1ccc(Cl)cc1Cl)c1ccc(CN2CCN(C(=O)C3Cc4ccccc43)CC2)s1 (stereo not drawn) [Example 70]
7,2.59 nM,Cc1cccc(C(=O)N2CCN(Cc3ccc(C(=O)NCc4ccccc4OC(F)(F)F)s3)CC2)n1 [Example 72]
8,2.59 nM,O=C(NCc1ccccc1OC(F)(F)F)c1ccc(CN2CCN(c3cnccn3)CC2)s1 [Example 73]
9,2.66 nM,CNC(=O)c1cccnc1N1CCN(Cc2ccc(C(=O)NCc3ccc(OC)cc3OC(F)(F)F)s2)CC1 [Example 74]
10,2.55 nM,O=C(NCc1ccccc1C(F)(F)F)c1ccc(CN2CCN(C(=O)C3(c4ccccc4)CC3)CC2)s1 [Example 75]
11,2.53 nM,O=C(NCc1ccccc1C(F)(F)F)c1ccc(CN2CCN(C(=O)[C@@H]3C[C@H]3c3ccccc3)CC2)s1 [Example 76]
12,2.49 nM,O=C(NCc1ccc(Cl)cc1Cl)c1ccc(CN2CCN(C(=O)c3ccccn3)CC2)s1 [Example 77]
13,2.54 nM,CCCn1nccc1CNC(=O)c1ccc(CN2CCN(C(=O)c3c(C)cc(=O)oc3C)CC2)s1 [Example 78]
14,2.54 nM,Cc1ccc(O)c(C(=O)N2CCN(Cc3ccc(C(=O)NCc4ccccc4OC(F)(F)F)s3)CC2)n1 [Example 79]
15,2.53 nM,Cc1cc(=O)oc(C)c1C(=O)N1CCN(Cc2ccc(C(=O)NCc3ccc(C#N)cc3Cl)s2)CC1 [Example 80]
16,2.36 nM,O=C(NCc1ccccc1C(F)(F)F)c1ccc(CN2CCN(C(=O)c3c(Cl)cccc3Cl)CC2)s1 [Example 81]
17,2.37 nM,O=C(NCc1ccccc1OC(F)(F)F)c1ccc(CN2CCN(C(=O)c3ncccc3O)CC2)s1 [Example 82]
18,2.37 nM,COCCOCC(=O)N1CCN(Cc2ccc(C(=O)NCc3ccccc3OC(F)(F)F)s2)CC1 [Example 83]
19,2.35 nM,O=C(NCc1ccc(Cl)cc1Cl)c1ccc(CN2CCN(C3CCCC3)C(=O)C2)s1 [Example 84]
20,2.44 nM,O=C(NCc1ccccc1OC(F)(F)F)c1ccc(CN2CCN(C3CCS(=O)(=O)C3)CC2)s1 (stereo not drawn) [Example 85]
21,2.38 nM,CC1(C)CC[C@@H](C(=O)N2CCN(Cc3ccc(C(=O)NCc4ccccc4OC(F)(F)F)s3)CC2)N1 [Example 86]

row,IC50,Compound
1,2.41 nM,O=C(NCc1ccccc1OC(F)(F)F)c1ccc(CN2CCN(c3ccc(CO)cn3)CC2)s1 [Example 87]
2,1.44 nM,Cc1noc(C)c1C(=O)N1CCN(Cc2ccc(C(=O)NCc3ccccc3C(F)(F)F)s2)CC1 [Example 88]
3,1.4 nM,O=C(NCc1ccc(Cl)cc1Cl)c1ccc(CN2CCN(C(=O)c3cccnc3)CC2)s1 [Example 89]
4,1.43 nM,CCc1oncc1C(=O)N1CCN(Cc2ccc(C(=O)NCc3ccc(Cl)cc3Cl)s2)CC1 [Example 90]
5,1.42 nM,Cc1cc(=O)oc(C)c1C(=O)N1CCN(Cc2ccc(C(=O)NCc3cccc(Cl)c3Cl)s2)CC1 [Example 91]
6,1.39 nM,CC(O)CC(=O)N1CCN(Cc2ccc(C(=O)NCc3ccccc3OC(F)(F)F)s2)CC1 (stereo not drawn) [Example 92]
7,1.31 nM,CO[C@H](C)C(=O)N1CCN(Cc2ccc(C(=O)NCc3ccccc3OC(F)(F)F)s2)CC1 [Example 93]
8,1.5 nM,O=C(NCc1ccccc1OC(F)(F)F)c1ccc(CN2CCN(C(=O)[C@@H]3CCC[C@@H]3O)CC2)s1 [Example 94]
9,1.51 nM,CCC(C)(O)C(=O)N1CCN(Cc2ccc(C(=O)NCc3ccccc3OC(F)(F)F)s2)CC1 (stereo not drawn) [Example 95]
10,1.57 nM,CC[C@@H](O)C(=O)N1CCN(Cc2ccc(C(=O)NCc3ccccc3OC(F)(F)F)s2)CC1 [Example 96]
11,1.6 nM,COc1cccnc1C(=O)N1CCN(Cc2ccc(C(=O)NCc3ccccc3OC(F)(F)F)s2)CC1 [Example 97]
12,1.52 nM,CC(C(=O)N1CCN(Cc2ccc(C(=O)NCc3ccccc3C(F)(F)F)s2)CC1)c1ccccc1 (stereo not drawn) [Example 98]
13,1.53 nM,CCn1nc(C)c(Br)c1C(=O)N1CCN(Cc2ccc(C(=O)NCCC(C)C)s2)CC1 [Example 99]
14,2.28 nM,CC(C)[C@@H](O)C(=O)N1CCN(Cc2ccc(C(=O)NCc3ccccc3OC(F)(F)F)s2)CC1 [Example 101]
15,2.33 nM,O=C1CCC(C(=O)N2CCN(Cc3ccc(C(=O)NCc4ccccc4OC(F)(F)F)s3)CC2)N1 (stereo not drawn) [Example 102]
16,2.32 nM,CC1(C)SCN[C@H]1C(=O)N1CCN(Cc2ccc(C(=O)NCc3ccc(Cl)cc3Cl)s2)CC1 [Example 103]
17,2.33 nM,COc1ccc(CNC(=O)c2ccc(CN3CCn4cnnc4C3)s2)c(OC(F)(F)F)c1 [Example 104]
18,2.33 nM,Cc1cccnc1N1CCN(Cc2ccc(C(=O)NCc3ccc(Cl)cc3Cl)s2)CC1=O [Example 105]
19,2.18 nM,O=C(NCc1ccccc1OC(F)(F)F)c1ccc(CN2CCN(C(=O)CCO)CC2)s1 [Example 106]
20,2.26 nM,O=C(NCc1ccccc1OC(F)(F)F)c1ccc(CN2CCN(C(=O)c3c[nH]cnc3=O)CC2)s1 [Example 107]
21,2.15 nM,Cn1ncc(N2CCN(Cc3ccc(C(=O)NCc4ccc(Cl)cc4Cl)s3)CC2)cc1=O [Example 108]

row,IC50,Compound
1,2.16 nM,NC1(C(=O)N2CCN(Cc3ccc(C(=O)NCc4ccc(Cl)cc4Cl)s3)CC2)CC1 [Example 109]
2,2.16 nM,CC1(C)SCN[C@H]1C(=O)N1CCN(Cc2ccc(C(=O)NCc3ccccc3OC(F)(F)F)s2)CC1 [Example 110]
3,2.23 nM,O=C(NCc1ccccc1OC(F)(F)F)c1ccc(CN2CCN(CC(F)(F)F)C(=O)C2)s1 [Example 111]
4,1.64 nM,Cc1cccnc1N1CCN(Cc2ccc(C(=O)NCc3ccccc3OC(F)(F)F)s2)CC1=O [Example 112]
5,1.67 nM,COc1ccc(CNC(=O)c2ccc(CN3CCN(c4nccn4C)CC3)s2)c(OC(F)(F)F)c1 [Example 113]
6,1.67 nM,O=C(NCc1ccc(Cl)cc1Cl)c1ccc(CN2CCN3C(=O)CCC3C2)s1 (stereo not drawn) [Example 114]
7,1.64 nM,"NC1(C(=O)N2CCN(Cc3ccc(C(=O)NCc4ccccc4OC(F)(F)F)s3)CC2)CC1 [Example 115, 5-[4-(1-Amino-cyclopropanecarbonyl)-piperazin-1-ylmethyl]-thiophene-2-carboxylic acid 2-trifluoromethoxy-benzylamide, trifluoroacetate]"
8,1.6 nM,COCCC(=O)N1CCN(Cc2ccc(C(=O)NCc3ccccc3OC(F)(F)F)s2)CC1 [Example 116]
9,1.64 nM,CCc1oncc1C(=O)N1CCN(Cc2ccc(C(=O)NCc3ccccc3C(F)(F)F)s2)CC1 [Example 117]
10,1.72 nM,CCOc1ccccc1C(=O)N1CCN(Cc2ccc(C(=O)NCCC(C)C)s2)CC1 [Example 118]
11,1.68 nM,O=C(NCc1ccccc1C(F)(F)F)c1ccc(CN2CCN(C(=O)c3ccccc3F)CC2)s1 [Example 119]
12,5.3 nM,"Cc1cc(N2CCN(Cc3ccc(C(=O)NCc4ccc(Cl)cc4Cl)s3)CC2)cc(C)n1 [Example 120, 5-[4-(2,6-Dimethyl-pyridin-4-yl)-piperazin-1-ylmethyl]-thiophene-2-carboxylic acid 2,4-dichloro-benzylamide]"
13,1.68 nM,O=C(NCc1ccccc1OC(F)(F)F)c1ccc(CN2CCN(C(=O)c3ccccn3)CC2)s1 [Example 121]
14,1.74 nM,Cc1noc(C)c1C(=O)N1CCN(Cc2ccc(C(=O)NCc3ccccc3OC(F)(F)F)s2)CC1 [Example 122]
15,1.69 nM,CC(C)(O)C(=O)N1CCN(Cc2ccc(C(=O)NCc3ccccc3OC(F)(F)F)s2)CC1 [Example 123]
16,1.69 nM,COc1ccc(CNC(=O)c2ccc(CN3CCN(c4ccccn4)CC3)s2)c(OC(F)(F)F)c1 [Example 124]
17,1.68 nM,O=C(NCc1ccccc1OC(F)(F)F)c1ccc(CN2CCN(CCO)CC2)s1 [Example 125]
18,1.75 nM,COc1ccc(CNC(=O)c2ccc(CN3CCN(c4ncccc4C)C(=O)C3)s2)c(OC(F)(F)F)c1 [Example 126]
19,1.73 nM,COc1ccc(CNC(=O)c2ccc(CN3CCN(c4cc(C)ccn4)CC3)s2)c(OC(F)(F)F)c1 [Example 127]

row,Compound,IC50
1,O=C(NCc1ccc(Cl)cc1Cl)c1ccc(CN2CCN(C(=O)Cc3ccccc3Cl)CC2)s1 [Example 69],2.61 nM
2,O=C(NCc1ccc(Cl)cc1Cl)c1ccc(CN2CCN(C(=O)Cc3cccc(C(F)(F)F)c3)CC2)s1 [Example 100],2.3 nM

# Reference: patent US9776991B2, “Thienomethylpiperazine derivatives as inhibitors of soluble epoxide hydrolase” (SANOFI, priority 2013, dated 2017)
